Reference: patent US9163042B2, “Prodrugs of pyridone amides useful as modulators of sodium channels” (VERTEX PHARMACEUTICALS INCORPORATED, priority 2013, dated 2015)
Read-outs that look alike come from different tables or passages of the source.

Assays:
[1] = target: human Nav1.8 (Homo sapiens (Human), UniProt Q9Y5Y9); assay: E-VIPR optical membrane potential assay with electrical stimulation (NaV1.8 IC50 activity); type: cell-based
From the text: Sodium channels are voltage-dependent proteins that can be activated by inducing membrane voltage changes by applying electric fields. The electrical stimulation instrument and methods of use are described in Ion Channel Assay Methods PCT/US01/21652, herein incorporated by reference and are referred to as E-VIPR. The instrument comprises a microtiter plate handler, an optical system for exciting the coumarin dye while simultaneously recording the coumarin and oxonol emissions, a waveform generator, a current- or voltage-controlled amplifier, and a device for inserting electrodes in well. Under integrated computer control, this instrument passes user-programmed electrical stimulus protocols to cells within the wells of the microtiter plate.
24 hours before the assay on E-VIPR, HEK cells expressing human Nav1.8 were seeded in 384-well poly-lysine coated plates at 15,000-20,000 cells per well. […] Cells were grown in vented cap flasks, in 90% humidity and 5% CO2.
1) Pre-spotted compounds (in neat DMSO) into compound plates. […] Final compound plate volume was 80 μL (80-fold intermediate dilution from 1 μL DMSO spot; 160-fold final dilution after transfer to cell plate).
2) Prepared Hexyl Dye Solution.
3) Prepared cell plates. On the day of the assay, medium was aspirated and cells were washed three times with 100 μL of Bath1 Solution, maintaining 25 μL residual volume in each well.
4) Dispensed 25 μL per well of Hexyl Dye Solution into cell plates. Incubated for 20-35 minutes at room temp or ambient conditions.
5) Dispensed 80 μL per well of Bath1 into compound plates. Acid Yellow-17 (1 mM) was added and Potassium Chloride was altered from 4.5 to 20 mM depending on the NaV subtype and assay sensitivity.
6) Washed cell plates three times with 100 μL per well of Bath1, leaving 25 μL of residual volume. […] Incubated for 20-35 minutes at room temp/ambient condition.
7) Read Plate on E-VIPR. […] A pre-stimulus recording was performed for 0.5 seconds to obtain the un-stimulated intensities baseline. The stimulatory waveform was followed by 0.5 seconds of post-stimulation recording to examine the relaxation to the resting state.
Data was analyzed and reported as normalized ratios of emission intensities measured in the 460 nm and 580 nm channels. The response as a function of time was reported as the ratios obtained using the following formula: […]
The data was further reduced by calculating the initial (Ri) and final (Rf) ratios. These were the average ratio values during part or all of the pre-stimulation period, and during sample points during the stimulation period. The response to the stimulus R=Rf/Ri was then calculated and reported as a function of time.
Control responses were obtained by performing assays in the presence of a compound with the desired properties (positive control), such as tetracaine, and in the absence of pharmacological agents (negative control). Responses to the negative (N) and positive (P) controls were calculated as above.

[2] = Rat oral pharmacokinetic study; type: in vivo, Sprague Dawley rats; settings: Sprague Dawley, mean ± SD
Protocol: (§1) Sample Analysis. […] Before extraction, plasma samples were diluted using blank plasma at an appropriate dilution factor, as necessary, depending on the dose level. […] After centrifugation, the supernatant extract (10 μL) was injected onto the LC/MS/MS system. The HPLC system included a Phenomenex Synergy Kinetix C8 column, 2.6 micron, 2.0 mm diameter×75 mm long eluted with a gradient mobile phase consisting of 0.1% formic acid in water or in acetonitrile.
(§2) The analytes were detected by MS/MS with Electrospray Ionization (ESI) in the mode of multiple reaction monitoring (MRM). […] The intra-day and inter-day assay accuracy was within 20% of the nominal values. The intra- and inter-day assay variability was ≦20%.
(§3) Pharmacokinetic Data Analysis.
(§4) Key pharmacokinetic parameters such as AUCall, AUCextra, Cmax, tmax, Cl, Vss and t1/2 were determined.
(§5) Statistical Data Analysis. Descriptive statistical data of pharmacokinetic parameters were calculated, including the mean, standard deviation (SD), using Watson LIMS version 7.4 SP3 or Microsoft Excel 2000.
Groups of male and female Sprague Dawley rats (n=3 per dose group) were administered single nominal oral doses of 10, 100, 400, 640, 1000 mg/kg (for males) and 30, 100, 300, 640, 1000 mg/kg (for females) of compound 9 by gavage. Compound 9 was formulated in either 30% PEG400 and 10% TPGS in water or 5% TPGS, 5% PVP-K30 in 50 mM Citrate, pH 5. Animals had free access to food and water before and after dosing. Blood samples (approximately 0.25 mL each) were collected via a carotid artery catheter prior to dosing and at 0.25, 0.5, 1, 2, 4, 8, 12, 24, 48 and 72 hours post dose. Each blood sample was collected into a tube that was kept on wet ice and contained potassium EDTA as the anticoagulant. Plasma was separated and stored at approximately −70° C. until analysis.

[3] = Aqueous solubility study; type: physicochemical; settings: for solubility at 24 h: thermodynamic from solid
Protocol: The aqueous solubility of compound 9 and 9a were determined according to the following procedure. Solubility data was determined at ambient conditions by equilibrating the compound with water on a shaking bed for 24 hours, followed by centrifugation and separation of the saturated solutions. The pH value of each media was measured before centrifugation, and the saturated solutions were assayed by HPLC.

[4] = Rat IV pharmacokinetic study; type: in vivo, Sprague Dawley rats; settings: Sprague Dawley, male rat, single IV bolus 1 mg/kg of compound 9, DMI vehicle, analyte 9a in plasma; for AUC: male, rat, plasma, iv, 1 mg/kg
Protocol: as §1, §2, §3, §4, §5
Male Sprague Dawley rats (n=3) were administered a single nominal IV bolus dose of 1 mg/kg of compound 9 via a jugular vein cannula. […] Animals had free access to food and water before and after dosing. Blood samples (approximately 0.25 mL each) were collected via a carotid artery catheter prior to dosing and at 5 min, 10 min, 0.25, 0.5, 1, 2, 4, 8, 12, 24 hours post dose. Each blood sample was collected into a tube that was kept on wet ice and contained potassium EDTA as the anticoagulant. Plasma was separated and stored at approximately −70° C. until analysis.
Plasma concentration vs. time data were subjected to noncompartmental pharmacokinetic (PK) analysis.

[5] = Chemical and physical stability of crystalline Form B (XRPD, HPLC impurity profile, appearance); type: physicochemical
From the text: Chemically and physically stable means no changes were observed on the X-ray powder diffraction and HPLC impurity profiles (e.g., less than 0.2% variance) and there were no observed changes in physical appearance of the samples.

[6] = female rat, single PO 30 mg/kg of compound 9, 5% TPGS/5% PVP-K30/50 mM Citrate pH 5, analyte 9a in plasma
[7] = female rat, single PO 100 mg/kg of compound 9, 5% TPGS/5% PVP-K30/50 mM Citrate pH 5, analyte 9a in plasma
[8] = female rat, single PO 300 mg/kg of compound 9, 5% TPGS/5% PVP-K30/50 mM Citrate pH 5, analyte 9a in plasma
[9] = female rat, single PO 640 mg/kg of compound 9, 5% TPGS/5% PVP-K30/50 mM Citrate pH 5, analyte 9a in plasma
[10] = female rat, single PO 1000 mg/kg of compound 9, 5% TPGS/5% PVP-K30/50 mM Citrate pH 5, analyte 9a in plasma
[11] = male rat, single PO 10 mg/kg of compound 9, 5% TPGS/5% PVP-K30/50 mM Citrate pH 5, analyte 9a in plasma
[12] = male rat, single PO 100 mg/kg of compound 9, 5% TPGS/5% PVP-K30/50 mM Citrate pH 5, analyte 9a in plasma
[13] = male rat, single PO 400 mg/kg of compound 9, 5% TPGS/5% PVP-K30/50 mM Citrate pH 5, analyte 9a in plasma
[14] = male rat, single PO 640 mg/kg of compound 9, 5% TPGS/5% PVP-K30/50 mM Citrate pH 5, analyte 9a in plasma
[15] = male rat, single PO 1000 mg/kg of compound 9, 5% TPGS/5% PVP-K30/50 mM Citrate pH 5, analyte 9a in plasma

Chain of human Nav1.8 (Q9Y5Y9 whole entry): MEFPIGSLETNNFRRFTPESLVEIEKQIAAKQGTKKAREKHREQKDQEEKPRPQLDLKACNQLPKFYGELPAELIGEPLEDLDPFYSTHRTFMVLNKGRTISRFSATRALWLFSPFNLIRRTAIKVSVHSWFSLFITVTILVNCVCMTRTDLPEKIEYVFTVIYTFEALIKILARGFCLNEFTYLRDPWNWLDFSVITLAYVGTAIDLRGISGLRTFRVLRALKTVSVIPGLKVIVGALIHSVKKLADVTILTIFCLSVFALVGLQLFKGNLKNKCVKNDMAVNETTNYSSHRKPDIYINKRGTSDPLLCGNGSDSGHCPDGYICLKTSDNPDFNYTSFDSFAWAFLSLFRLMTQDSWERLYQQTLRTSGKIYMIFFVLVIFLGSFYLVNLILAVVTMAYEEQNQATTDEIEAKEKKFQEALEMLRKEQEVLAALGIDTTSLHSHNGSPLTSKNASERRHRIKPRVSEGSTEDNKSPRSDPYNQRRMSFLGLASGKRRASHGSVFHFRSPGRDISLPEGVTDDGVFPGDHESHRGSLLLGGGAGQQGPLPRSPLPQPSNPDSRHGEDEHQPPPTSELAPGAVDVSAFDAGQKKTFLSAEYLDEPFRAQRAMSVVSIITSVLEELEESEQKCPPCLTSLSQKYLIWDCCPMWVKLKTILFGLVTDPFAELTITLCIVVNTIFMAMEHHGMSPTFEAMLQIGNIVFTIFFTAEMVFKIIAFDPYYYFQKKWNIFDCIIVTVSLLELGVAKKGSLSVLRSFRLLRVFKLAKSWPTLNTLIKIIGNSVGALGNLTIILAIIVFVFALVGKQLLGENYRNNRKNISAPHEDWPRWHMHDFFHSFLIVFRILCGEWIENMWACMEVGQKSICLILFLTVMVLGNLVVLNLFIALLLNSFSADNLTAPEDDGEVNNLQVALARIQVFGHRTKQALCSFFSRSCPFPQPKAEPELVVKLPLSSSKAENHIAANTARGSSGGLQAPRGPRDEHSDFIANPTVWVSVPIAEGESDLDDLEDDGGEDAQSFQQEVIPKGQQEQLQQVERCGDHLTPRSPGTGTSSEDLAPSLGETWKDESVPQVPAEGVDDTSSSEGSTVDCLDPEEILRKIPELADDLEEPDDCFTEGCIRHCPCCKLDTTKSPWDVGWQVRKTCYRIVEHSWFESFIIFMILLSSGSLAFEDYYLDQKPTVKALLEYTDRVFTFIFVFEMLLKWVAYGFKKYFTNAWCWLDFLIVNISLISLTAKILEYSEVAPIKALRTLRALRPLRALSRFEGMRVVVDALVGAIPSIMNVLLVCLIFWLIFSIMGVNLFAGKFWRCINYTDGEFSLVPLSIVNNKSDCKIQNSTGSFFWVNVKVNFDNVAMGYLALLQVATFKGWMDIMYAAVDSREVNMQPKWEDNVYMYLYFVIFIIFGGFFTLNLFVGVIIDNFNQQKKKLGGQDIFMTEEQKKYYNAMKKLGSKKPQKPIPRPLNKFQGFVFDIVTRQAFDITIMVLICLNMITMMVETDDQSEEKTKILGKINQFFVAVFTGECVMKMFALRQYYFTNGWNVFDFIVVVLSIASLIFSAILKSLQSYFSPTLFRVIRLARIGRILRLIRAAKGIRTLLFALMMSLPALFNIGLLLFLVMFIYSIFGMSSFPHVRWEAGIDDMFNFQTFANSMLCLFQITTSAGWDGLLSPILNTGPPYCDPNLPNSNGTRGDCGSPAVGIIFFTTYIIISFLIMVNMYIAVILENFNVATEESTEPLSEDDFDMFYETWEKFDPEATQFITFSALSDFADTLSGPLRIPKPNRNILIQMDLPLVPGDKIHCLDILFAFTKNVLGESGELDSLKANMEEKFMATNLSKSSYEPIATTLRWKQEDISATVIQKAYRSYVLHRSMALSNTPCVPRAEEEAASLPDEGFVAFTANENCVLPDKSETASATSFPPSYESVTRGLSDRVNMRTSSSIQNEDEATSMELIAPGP

Compound: COc1cc(F)ccc1Oc1cc(Cl)c(Cl)cc1C(=O)Nc1ccn(COP(=O)(O)O)c(=O)c1 [Compound 1, (4-(4,5-dichloro-2-(4-fluoro-2-methoxyphenoxy)benzamido)-2-oxopyridin-1(2H)-yl)methyl dihydrogen phosphate]
- IC50 [1]: 4 nM

Compound: COc1cc(F)ccc1Oc1cc(C(F)(F)C(F)(F)F)ccc1C(=O)Nc1ccn(COP(=O)(O)O)c(=O)c1 [Compound 2, (4-(2-(4-fluoro-2-methoxyphenoxy)-4-(perfluoroethyl)benzamido)-2-oxopyridin-1(2H)-yl)methyl dihydrogen phosphate]
- IC50 [1]: 28 nM

Compound: Cc1cc(F)ccc1Oc1cc(C(F)(F)F)ccc1C(=O)Nc1cc[nH]c(=O)c1 [Compound 9a, 2-(4-fluoro-2-methylphenoxy)-N-(2-oxo-1,2-dihydropyridin-4-yl)-4-(trifluoromethyl)benzamide]
- AUC [2, 6]: 99200 ± 6880 ng·h/mL
- Cmax [2, 6]: 3330 ± 430 ng/mL
- Tmax [2, 6]: 6.67 ± 2.31 h
- half-life [2, 6]: 10.8 ± 1.6 h
- AUC [2, 7]: 187000 ± 17500 ng·h/mL
- Cmax [2, 7]: 5820 ± 580 ng/mL
- Tmax [2, 7]: 12 h
- half-life [2, 7]: 9.15 ± 0.44 h
- AUC [2, 8]: 282000 ± 74200 ng·h/mL
- Cmax [2, 8]: 7900 ± 1300 ng/mL
- Tmax [2, 8]: 10.7 ± 2.31 h
- half-life [2, 8]: 13.1 ± 2.65 h
- AUC [2, 9]: 324000 ± 32800 ng·h/mL
- Cmax [2, 9]: 10000 ± 1450 ng/mL
- Tmax [2, 9]: 9.33 ± 2.31 h
- half-life [2, 9]: 7.51 ± 1.86 h
- AUC [2, 10]: 345000 ± 69600 ng·h/mL
- Cmax [2, 10]: 10600 ± 3580 ng/mL
- Tmax [2, 10]: 13.3 ± 9.24 h
- half-life [2, 10]: 7.9 ± 3.37 h
- AUC [2, 11]: 3600 ± 240 ng·h/mL
- Cmax [2, 11]: 290 ± 50 ng/mL
- Tmax [2, 11]: 5.33 ± 2.31 h
- half-life [2, 11]: 3.8 ± 0.73 h
- AUC [2, 12]: 24800 ± 4600 ng·h/mL
- Cmax [2, 12]: 1670 ± 190 ng/mL
- Tmax [2, 12]: 8 h
- half-life [2, 12]: 5.36 ± 2.3 h
- AUC [2, 13]: 68600 ± 25700 ng·h/mL
- Cmax [2, 13]: 3740 ± 1250 ng/mL
- Tmax [2, 13]: 5.67 ± 4.04 h
- half-life [2, 13]: 5.2 ± 1.96 h
- AUC [2, 14]: 74900 ± 24100 ng·h/mL
- Cmax [2, 14]: 4760 ± 980 ng/mL
- Tmax [2, 14]: 6 ± 3.46 h
- half-life [2, 14]: 6.91 ± 1.84 h
- AUC [2, 15]: 88500 ± 41000 ng·h/mL
- Cmax [2, 15]: 4540 ± 910 ng/mL
- Tmax [2, 15]: 6.67 ± 2.31 h
- half-life [2, 15]: 7.95 ± 2.24 h
- solubility at 24 h ([3]; aqueous medium, simulated gastric fluid, pH 1.2, crystalline, ambient conditions, 24 hours, read-out: Solubility): < 1 µg/mL
- Solubility ([3]; pH 6.0, crystalline, ambient conditions, 24 hours): <1 µg/mL
- solubility at 24 h ([3]; water, pH 6.0, read-out: aqueous solubility in water): < 1 µg/mL
- C0 [4]: 259 ng/mL
- clearance [4]: 18.7 mL/min/kg
- Vd ([4]; read-out: Vss): 3.77 L/kg
- half-life ([4]; read-out: t½ (converted)): 2.43 h
- AUC ([4]; read-out: AUCall): 592 ng·h/mL
- AUC ([4]; read-out: AUCextra): 611 ng·h/mL

Compound: Cc1cc(F)ccc1Oc1ccc(C(F)(F)F)cc1C(=O)Nc1ccn(COP(=O)(O)O)c(=O)c1 [Compound 10, (4-(2-(4-fluoro-2-methylphenoxy)-5-(trifluoromethyl)benzamido)-2-oxopyridin-1(2H)-yl)methyl dihydrogen phosphate]
- IC50 [1]: 86 nM

Compound: Cc1cc(F)ccc1Oc1cc(Cl)ccc1C(=O)Nc1ccn(COP(=O)(O)O)c(=O)c1 [Compound 13, (4-(4-chloro-2-(4-fluoro-2-methylphenoxy)benzamido)-2-oxopyridin-1(2H)-yl)methyl dihydrogen phosphate]
- IC50 [1]: 329 nM

Compound: O=C(Nc1ccn(COP(=O)(O)O)c(=O)c1)c1cc(C(F)(F)F)ccc1Oc1ccc(F)cc1 [Compound 18, (4-(2-(4-fluorophenoxy)-5-(trifluoromethyl)benzamido)-2-oxopyridin-1(2H)-yl)methyl dihydrogen phosphate]
- IC50 [1]: 457 nM

Compound: Cc1cc(F)ccc1Oc1cc(C(F)(F)F)ccc1C(=O)Nc1ccn(COP(=O)(O)O)c(=O)c1 [crystalline Form B, (4-(2-(4-fluoro-2-methylphenoxy)-4-(trifluoromethyl)benzamido)-2-oxopyridin-1(2H)-yl)methyl dihydrogen phosphate]
- chemical and physical stability ([5]; 5° C./dry, 40° C./dry, 25° C. with relative humidity of up to 60%, 40° C. with relative humidity of up to 75%): chemically and physically stable for at least one month
- chemical and physical stability ([5]; open dish at 40° C., 40° C. with RH up to 75%, 25° C. with RH up to 60%, closed dish at 5° C. with a desiccator): chemically and physically stable for at least three months
